According to patent publication US4798892A, “2-hydroxypropylamine heteroaryl ester derivatives” (priority 1986, dated 1989):
Structures can show the parent of a compound that is named as a salt.

Tests used:
[1] = molecular target: T1, beta adrenergic receptor (guinea pig right atria) (Cavia porcellus, UniProt H0W3H1); test: Beta-blocking activity in vitro, guinea pig right atria (blockade of isoproterenol rate response); conditions: Table I; guinea pig right atria, isoproterenol agonist, 60-minute incubation, 37° C.; read-out: PA2 Rt. Atria (converted)
T1 construct: guinea pig right atria and guinea pig tracheal strips mounted in a tissue bath; from tissue; host or cells: guinea pig right atria, spontaneously beating
T1 sequence (H0W3H1 1-470): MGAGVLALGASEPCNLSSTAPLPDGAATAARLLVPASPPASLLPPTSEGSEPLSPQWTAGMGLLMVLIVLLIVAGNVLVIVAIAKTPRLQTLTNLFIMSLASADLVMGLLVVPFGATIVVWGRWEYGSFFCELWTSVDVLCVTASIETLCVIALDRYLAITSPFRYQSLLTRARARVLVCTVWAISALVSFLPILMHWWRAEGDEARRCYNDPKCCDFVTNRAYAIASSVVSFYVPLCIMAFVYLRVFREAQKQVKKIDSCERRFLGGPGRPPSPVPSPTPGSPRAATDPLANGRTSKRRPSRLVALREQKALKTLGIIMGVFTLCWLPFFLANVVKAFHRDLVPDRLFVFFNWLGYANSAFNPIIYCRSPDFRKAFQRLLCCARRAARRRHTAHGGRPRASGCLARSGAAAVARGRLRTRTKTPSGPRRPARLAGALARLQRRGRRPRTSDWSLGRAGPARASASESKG

[2] = Enzymatic hydrolysis of beta blockers by dog blood (procedure C); type: in vitro ADME; conditions: for remaining at 1 h / remaining at 2 h: dog, blood, 37° C.; for remaining at 1 h: read-out: Percent drug remaining, dog blood, 1 HR; for remaining at 2 h: read-out: Percent drug remaining, dog blood, 2 HR
Experimental: (§1) Chemicals--Acetonitrile was "HPLC" grade. Distilled water was used to dissolve the compounds and 0.01N HCl was used to dissolve compounds requiring an acidic pH for dissolution.
(§2) Enzyme Source--Fresh aqueous humor was collected from eyes of dogs using a 23-gauge needle while fresh dog blood was collected into heparinized Vacutainer tubes. Fresh liver was homogenized in 0.9% NaCl using a Potter-Elvehjem Teflon pestle and glass homogenizer making a 25% (W/V) homogenate.
(§3) Incubation Condition--A 0.5 ml aliquot of dog aqueous humor, blood or liver homogenate was incubated with 12.5 μg (0.5 ml) of beta blocker in a Dubnoff shaking metabolic incubator at 37° C. for 60 and 120 min. Denatured tissue controls were prepared by adding 2.0 ml of acetonitrile into 0.5 ml of aqueous humor, blood or liver homogenate to destroy esterase activities prior to addition of the beta blockers. The controls were then incubated at 37° C. for 120 min. After 60 and 120 min, the incubations were terminated by addition of 2 ml of acetonitrile and immediately mixed by a Vortex® to stop esterase activities.
(§4) Sample Processing and Data Analyses--All samples were centrifuged at 4000 RPM for 10 min to sediment denatured proteins. The resultant supernatants were transferred to WISP® vials and analyzed using an HPLC assay developed for beta blockers. The hydrolysis of beta blockers by aqueous humor, blood and liver homogenate was determined by disappearance of the compounds. The extent of enzymatic hydrolysis by each tissue was determined by comparing the amount of each compound (absolute peak area) recovered at each time point to the amount of each compound (absolute peak area) in denatured tissue control and aqueous control samples. The results of these experiments are shown in Tabe III.

[3] = Enzymatic hydrolysis of beta blockers by dog aqueous humor (procedure C); type: in vitro ADME; conditions: for remaining at 1 h / remaining at 2 h: 37° C.; for remaining at 1 h: read-out: Percent drug remaining, dog aqueous humor, 1 HR; for remaining at 2 h: read-out: Percent drug remaining, dog aqueous humor, 2 HR; for half-life: approximate value determined by procedure C, read-out: T1/2 dog aqueous humor; for metabolised at 1 h: one hour, read-out: hydrolyzed in aqueous humor after one hour; for metabolised at 2 h: two hours, read-out: hydrolyzed in aqueous humor after two hours
Experimental: as §1, §2, §3, §4

[4] = Enzymatic hydrolysis of beta blockers by dog liver homogenate (procedure C); type: in vitro ADME; conditions: for remaining at 1 h / remaining at 2 h: dog, liver homogenate, 37° C.; for remaining at 1 h: read-out: Percent drug remaining, dog liver homogenate, 1 HR; for remaining at 2 h: read-out: Percent drug remaining, dog liver homogenate, 2 HR
Experimental: as §1, §2, §3, §4

[5] = Half-lives of beta blockers in dog whole blood (procedure D); type: in vitro ADME; conditions: 37° C., read-out: T1/2 dog blood
Experimental: (§5) The rate of disappearance of a compound is expressed as the half-life (T1/2), which is the time period in which one half of the initial amount of compound tested disappears. In each experiment, 1 ml of a solution containing 50 μg of the test compound was added to 1 ml of whole blood or 1 ml of a 33% (w/v) liver homogenate. The samples were incubated in a Dubnoff shaking metabolic incubator for 2.5, 5.0, 10.0, 20.0, 30.0 and 60.0 minutes at 37° C. At the designated time periods, the test mixtures were removed from the incubator and transferred to a 0° C. ice bath. Acetonitrile (2 ml) was immediately added and the mixtures were mixed to stop enzymatic hydrolysis. Zero time samples were prepared by adding 2 ml of acetonitrile to denature the proteins prior to addition of the test compounds. After centrifugation to sediment denatured proteins, 2 ml of the supernatant was removed and analyzed by high pressure liquid chromatography, using a mobile phase of 60% acetonitrile/40% 0.05 m sodium phosphate buffer (pH 6.6), a U.V. detector and Waters u Bondapak Phenyl column. The half life of each test compound was determined graphically by plotting the decrease in concentrations as a function of time.

[6] = system: beta adrenergic receptor (guinea pig trachea vs right atria); test: Degree of cardioselectivity in vitro, KB trachea/KB atria; conditions: Table I; ratio greater than one indicates cardioselectivity
Experimental: Each tissue was suspended between a fixed glass rod and a Statham Universal Transducer connected to a Beckman recorder. Atria were allowed to beat spontaneously under a loading tension of approximately 0.5 gm. Intrinsic depressant or stimulant activity was determined for each compound by progressively increasing concentrations in the tissue baths at 60-minute intervals. Tissues were not washed between increments. The maximum concentration showing little or no cardiodepressant activity was chosen for blockade experiments. Changes in rate in response to isoproterenol, a standard β-receptor agonist, were measured in the absence and presence of test compounds. Spiral strips of guinea pig trachea were suspended under 5 gm resting tension and incubated with phentolamine, tropolone and cocaine. Active tension was generated by addition of carbachol (3.0×10^-7 M) and decreases in tension in response to isoproterenol were quantitated. Cumulative concentration-response curves were produced with isoproterenol both before and after 60-minute incubation of test compounds with atria and trachea. […] The blocking potency of test compounds was estimated by computing pA2 values (-log […]) by the method of Furchgott, the Pharmacological Differentiation of Adrenergie Receptors, Ann. […] The degree of cardioselectivity was estimated from the ratio, KB trachea/KB atria (10^(pA.sbsp.2^atria-pA.sbsp.2^trachea)). A ratio greater than one indicates cardioselectivity. Test drugs were dissolved in distilled water and added to the bath (30 ml) in a volume of 10 or 100 μl.

[7] = system: beta adrenergic receptor (heart rate response to isoproterenol); test: Duration and potency of beta-blocking action in vivo, 3-hour infusion in pentobarbital-anesthetized dogs; parameters: species or system dog; conditions: for Recovery Time 50% / Recovery Time 80% / Potency / % I (Percent inhibition of heart rate response to isoproterenol): Table II; for Recovery Time 50% / Recovery Time 80%: after termination of 3-hour infusion; for Potency: infusion rate adjusted so isoproterenol inhibition averaged about 50% at end of 3-hour infusion; for % I (Percent inhibition of heart rate response to isoproterenol): isoproterenol 0.5 μg/kg bolus, 3-hour infusion
Experimental: The duration of β-blockade was determined in vivo using pentobarbital-anesthetized dogs instrumented for measurement of heart rate using a Beckman cardiotachometer triggered electronically by a phasic aortic blood pressure signal. Both vagus nerves were severed in the cervical region and the animals were mechanically ventilated. The experimental design used employed a 3-hour infusion of test compound. Bolus doses of isoproterenol (0.5 μg/kg) were used to assess the degree of β-blockade and recovery from β-blockade after […] of the infusion. The doses were spaced at 10-minute intervals and were given before, during and following the infusion of test compounds. The infusion rate was adjusted so that at the end of the 3-hour infusion period the degree of isoproterenol inhibition averaged about 50% of control. Following termination of blocker infusion, percent recovery from β-blockade was computed and the time associated with 80% recovery estimated.

[8] = Half-lives of beta blockers in dog liver homogenate (procedure D); type: in vitro ADME; conditions: 33% (w/v) homogenate, 37° C., read-out: T1/2 dog liver homogenate
Experimental: as §5

[9] = Physician's Desk Reference, 35th Edition, 1981, p. 1233; cited from earlier work

Compound | Kb [1] | Cardioselectivity KB (Trachea)/KB (Atria) [6] | remaining at 1 h [2] | remaining at 2 h [2] | remaining at 1 h [3] | remaining at 2 h [3] | half-life [3] | metabolised at 1 h [3] | metabolised at 2 h [3] | remaining at 1 h [4] | remaining at 2 h [4] | half-life [5] | Recovery Time 50% [7] | Recovery Time 80% [7] | Potency [7] | % I (Percent inhibition of heart rate response to isoproterenol) [7] | half-life [8] | other results
CC(C)(CNC(=O)Nc1ccccc1)NCC(O)COC(=O)c1ccccc1F (centres unmarked) [XII, 3-[1,1-Dimethyl-2-(phenylaminocarbonylamino)]ethylamino-2-hydroxypropyl 2-Fluorobenzoate] | 79.4 nM | 5 |  |  |  |  |  |  |  |  |  |  |  |  |  |  |  | 
CC(C)C(=O)NCC(C)(C)NCC(O)COC(=O)c1ccccc1F (centres unmarked) [Example V, 3-[1,1-Dimethyl-2-(isopropylcarbonylamino)]ethylamino-2-hydroxypropyl 2-Fluorobenzoate Oxalate Monohydrate] | 158 nM |  | 12% | 8% | 75% | 49% | ~120 min |  |  | 0% | 0% | 20 min | 10 ± 2 min | 22 ± 6 min | 0.6 mg/kg/180 min | 62 ± 5% | 3.5 min | experiments did not recover to 80% within 60 min ([7]; Table II footnote c): 2/6
CC(C)(C)NC[C@H](O)COc1nsnc1N1CCOCC1 [timolol maleate] |  |  |  |  |  |  |  |  |  |  |  |  |  |  |  |  |  | adverse reactions to topical use [9]: bronchospasm and heart failure, as well as cardiac conduction defects
CC(C)(CNC(=O)Cc1ccccc1)NCC(O)COC(=O)c1ccccc1F (centres unmarked) [Example VII, 3-[1,1-Dimethyl-2-(benzylcarbonylamino)]ethylamino-2-hydroxypropyl 2-Fluorobenzoate Hydrochloride] | 39.8 nM |  | 0% | 0% | 69% | 46% | ~120 min | 31% | 54% | 0% | 0% | 6 min | 8 min | 19 min | 1.8 mg/kg/180 min | 68% | 25 min | hydrolysis in dog blood ([2]; within 60 minutes): completely hydrolyzed; hydrolysis in liver homogenate ([4]; within 60 minutes): completely hydrolyzed

The next lines start with results.

Kb [1] | Cardioselectivity KB (Trachea)/KB (Atria) [6] | Compound | remaining at 1 h [2] | remaining at 2 h [2] | remaining at 1 h [3] | remaining at 2 h [3] | half-life [3] | metabolised at 1 h [3] | metabolised at 2 h [3] | remaining at 1 h [4] | remaining at 2 h [4] | half-life [5] | Recovery Time 50% [7] | Recovery Time 80% [7] | Potency [7] | % I (Percent inhibition of heart rate response to isoproterenol) [7] | half-life [8] | other results
3.16 nM | 2 | CC(C)(CNC(=O)N1CCOCC1)NCC(O)COC(=O)c1ccccc1F (centres unmarked) [Example II, 3-[1,1-Dimethyl-2-(1-morpholinocarbonylamino)]ethylamino-2-hydroxypropyl 2-Fluorobenzoate Hydrochloride] | 0% | 0% | 58% | 32% | 60 to 120 min | 42% | 68% | 0% | 0% | 15 min |  |  |  |  |  | 
1 nM | 1 | CC(C)(CNC(=O)N1CCOCC1)NCC(O)COC(=O)c1cc(O)cc(O)c1 (centres unmarked) [XXXVIII, 3-[1,1-Dimethyl-2-(1-morpholinocarbonylamino)]ethylamino-2-hydroxypropyl 3,5-Dihydroxybenzoate Oxalate Hemihydrate] |  |  |  |  |  |  |  |  |  |  |  |  |  |  |  | 
